# Columns and labels:
# [1] = test system: soybean; experiment: Test A preemergence; type: in vivo, Glycine max; conditions: Glycine max, pre-emergence, 240 h, read-out: Plant response rating, Soybean
# How it was run: (§1)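 Weeds and crops in loam–sand blend were sprayed preemergence onto soil or postemergence at 2–10 cm (one- to two-leaf stage). Test chemicals were in a non-phytotoxic solvent with surfactant. After 10 days in the greenhouse, injury was rated visually against untreated controls on a 0 (no effect) to 100 (complete control) scale.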
# [2] = test system: ragweed; experiment: Test A postemergence; type: in vivo, Ambrosia artemisiifolia; conditions: Ambrosia artemisiifolia, post-emergence, 240 h, 500 g ai/ha, postemergence, 10 days, visual injury, 0 to 100 scale (0 no effect, 100 complete control); read-out: Plant response rating, Ragweed
# How it was run: as §1
# [3] = test system: kochia; experiment: Test A postemergence; type: in vivo, Bassia scoparia; conditions: Bassia scoparia, post-emergence, 240 h, postemergence, 10 days, visual injury, 0 to 100 scale (0 no effect, 100 complete control), read-out: Plant response rating, Kochia
# How it was run: as §1
# [4] = test system: rice; experiment: Test B flooded paddy test; type: in vivo, Oryza sativa; conditions: Oryza sativa, 312 h; 250 g ai/ha, Flood, 13 days, 0 to 100 scale (0 no effect, 100 complete control); read-out: Plant response rating, Rice
# How it was run: (§2)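 Each species was raised to the 2-leaf stage. At treatment, each pot received floodwater 3 cm deep, with the chemical delivered into the water. Greenhouse holding followed for 13 days, then percent control was estimated visually versus untreated pots.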
# [5] = test system: soybean; experiment: Test A postemergence; type: in vivo, Glycine max; conditions: Glycine max, post-emergence, 240 h, 500 g ai/ha, postemergence, 10 days, visual injury, 0 to 100 scale (0 no effect, 100 complete control); read-out: Plant response rating, Soybean
# How it was run: as §1
# [6] = test system: ducksalad; experiment: Test B flooded paddy test; type: in vivo, Heteranthera limosa; conditions: Heteranthera limosa, 312 h, 250 g ai/ha, Flood, 13 days, 0 to 100 scale (0 no effect, 100 complete control); read-out: Plant response rating, Ducksalad
# How it was run: as §2
# [7] = test system: oat, wild; experiment: Test A preemergence; type: in vivo, Avena fatua; conditions: Avena fatua, pre-emergence, 240 h, read-out: Plant response rating, Oat, Wild
# How it was run: as §1
# [8] = test system: blackgrass; experiment: Test A preemergence; type: in vivo, Alopecurus myosuroides; conditions: Alopecurus myosuroides, pre-emergence, 240 h, read-out: Plant response rating, Blackgrass
# How it was run: as §1
# [9] = test system: ryegrass, Italian; experiment: Test A postemergence; type: in vivo, Lolium multiflorum; conditions: Lolium multiflorum, post-emergence, 240 h, 500 g ai/ha, postemergence, 10 days, visual injury, 0 to 100 scale (0 no effect, 100 complete control); read-out: Plant response rating, Ryegrass, Italian
# How it was run: as §1
# [10] = test system: galium; experiment: Test A postemergence; type: in vivo, Galium aparine; conditions: Galium, post-emergence, 240 h, postemergence, 10 days, visual injury, 0 to 100 scale (0 no effect, 100 complete control), read-out: Plant response rating, Galium
# How it was run: as §1
# [11] = test system: kochia; experiment: Test A preemergence; type: in vivo, Bassia scoparia; conditions: Bassia scoparia, pre-emergence, 240 h, read-out: Plant response rating, Kochia
# How it was run: as §1
# [12] = test system: sedge, umbrella; experiment: Test B flooded paddy test; type: in vivo, Cyperus difformis; conditions: Cyperus difformis, 312 h; 250 g ai/ha, Flood, 13 days, 0 to 100 scale (0 no effect, 100 complete control); read-out: Plant response rating, Sedge, Umbrella
# How it was run: as §2
# [13] = test system: pigweed, palmer; experiment: Test A preemergence; type: in vivo, Amaranthus palmeri; conditions: Amaranthus palmeri, pre-emergence, 240 h, read-out: Plant response rating, Pigweed, Palmer
# How it was run: as §1
# [14] = test system: oat, wild; experiment: Test A postemergence; type: in vivo, Avena fatua; conditions: Avena fatua, post-emergence, 240 h, 500 g ai/ha, postemergence, 10 days, visual injury, 0 to 100 scale (0 no effect, 100 complete control); read-out: Plant response rating, Oat, Wild
# How it was run: as §1
# [15] = test system: wheat; experiment: Test A postemergence; type: in vivo, Triticum aestivum; conditions: Triticum aestivum, post-emergence, 240 h, 500 g ai/ha, postemergence, 10 days, visual injury, 0 to 100 scale (0 no effect, 100 complete control); read-out: Plant response rating, Wheat
# How it was run: as §1
# [16] = 125 g ai/ha, visual injury after 10 days, 0 to 100 scale, 0 is no effect, 100 is complete control
# [17] = 500 g ai/ha, 0 to 100 scale (0 no effect, 100 complete control), 10 days
smiles,measurement,setting,value
"Cc1ccc(-n2cnc(C(C)C)n2)cc1C(=O)N1C[C@H](C)Oc2c(Cl)cccc21 [Compound 73, [(2S)-8-Chloro-2,3-dihydro-2-methyl-4H-1,4-benzoxazin-4-yl][2-methyl-5-[3-(1-methylethyl)-1H-1,2,4-triazol-1-yl]phenyl]methanone]",plant injury at 125 g/ha,[1]; [16],60%
same,plant injury at 500 g/ha,[1]; [17],100%
same,pest or weed control at 500 g/ha,[2],80%
same,pest or weed control at 125 g/ha,[3]; 125 g ai/ha,90%
same,pest or weed control at 500 g/ha,[3]; 500 g ai/ha,100%
same,plant injury at 250 g/ha,[4],20%
same,plant injury at 500 g/ha,[5],100%
same,pest or weed control at 250 g/ha,[6],70%
same,pest or weed control at 125 g/ha,[7]; [16],80%
same,pest or weed control at 500 g/ha,[7]; [17],90%
same,pest or weed control at 125 g/ha,[8]; [16],70%
same,pest or weed control at 500 g/ha,[8]; [17],90%
same,pest or weed control at 500 g/ha,[9],100%
same,pest or weed control at 125 g/ha,[10]; 125 g ai/ha,100%
same,pest or weed control at 500 g/ha,[10]; 500 g ai/ha,100%
same,pest or weed control at 125 g/ha,[11]; [16],100%
same,pest or weed control at 500 g/ha,[11]; [17],100%
same,pest or weed control at 250 g/ha,[12],70%
same,pest or weed control at 125 g/ha,[13]; [16],100%
same,pest or weed control at 500 g/ha,[13]; [17],100%
same,pest or weed control at 500 g/ha,[14],80%
same,plant injury at 500 g/ha,[15],80%

# — patent publication US20260262643A1, “HERBICIDAL BENZOXAZINES” (FMC CORPORATION, priority 2022, published 2026)
